Assay results as given in ChEMBL document CHEMBL3044556, “Managing weeds with drip-applied herbicides in tomato” (2008).

Legend:
Assay type in all cases: functional
[1] = system: Eleusine indica; assay: Pre-emergence herbicidal activity against Eleusine indica in tomato field assessed as number of weeds at 1.14 kg/ha applied through drip lines/backpack-spray on week 3 to 4 before transplanting measured 12 weeks after treatment (reference value: 9 plants/m2)
[2] = system: Digitaria; assay: Pre-emergence herbicidal activity against Digitaria spp. in tomato field assessed as number of weeds at 1.14 kg/ha applied through drip lines/backpack-spray on week 3 to 4 before transplanting measured 12 weeks after treatment (reference value: 9 plants/m2)
[3] = system: Echinochloa colona; assay: Pre-emergence herbicidal activity against Echinochloa colona in tomato field assessed as number of weeds at 1.14 kg/ha applied through drip lines/backpack-spray on week 3 to 4 before transplanting measured 12 weeks after treatment (reference value: 9 plants/m2)
[4] = system: Amaranthus dubius; assay: Pre-emergence herbicidal activity against Amaranthus dubius in tomato field assessed as number of weeds at 1.14 kg/ha applied through drip lines/backpack-spray on week 3 to 4 before transplanting measured 12 weeks after treatment (reference value: 9 plants/m2)
[5] = system: Boerhavia erecta; assay: Pre-emergence herbicidal activity against Boerhavia erecta in tomato field assessed as number of weeds at 1.14 kg/ha applied through drip lines/backpack-spray on week 3 to 4 before transplanting measured 12 weeks after treatment (reference value: 9 plants/m2)
[6] = system: Corynandra viscosa; assay: Pre-emergence herbicidal activity against Cleome viscosa in tomato field assessed as number of weeds at 1.14 kg/ha applied through drip lines/backpack-spray on week 3 to 4 before transplanting measured 12 weeks after treatment (reference value: 9 plants/m2)
[7] = system: Portulaca oleracea; assay: Pre-emergence herbicidal activity against Portulaca oleracea in tomato field assessed as number of weeds at 1.14 kg/ha applied through drip lines/backpack-spray on week 3 to 4 before transplanting measured 12 weeks after treatment (reference value: 9 plants/m2)
[8] = system: Trianthema; assay: Pre-emergence herbicidal activity against Trianthema spp. in tomato field assessed as number of weeds at 1.14 kg/ha applied through drip lines/backpack-spray on week 3 to 4 before transplanting measured 12 weeks after treatment (reference value: 9 plants/m2)
[9] = system: Cyperus; assay: Pre-emergence herbicidal activity against Cyperus in tomato field assessed as number of weeds at 1.14 kg/ha applied through drip lines/backpack-spray on week 3 to 4 before transplanting measured 12 weeks after treatment (reference value: 5 plants/m2)
[10] = system: Poaceae; assay: Pre-emergence herbicidal activity against Poaceae (grass family) in tomato field assessed as number of weeds at 1.14 kg/ha applied through drip lines/backpack-spray on week 3 to 4 before transplanting measured 12 weeks after treatment (reference value: 8 plants/m2)
[11] = system: Eleusine indica; assay: Pre-emergence herbicidal activity against Eleusine indica in tomato field assessed as number of weeds at 1.14 kg/ha applied through drip lines/backpack-spray on week 3 to 4 before transplanting measured 7 weeks after treatment (reference value: 9 plants/m2)
[12] = system: Trianthema; assay: Pre-emergence herbicidal activity against Trianthema spp. in tomato field assessed as number of extra-large fruits at 1.14 kg/ha applied through drip lines/backpack-spray on week 3 to 4 before transplanting (reference value: 21.3 x 10 '3 ha); details: pooled result: one value given for 8 cell lines, strains, targets or settings
[13] = system: Amaranthus dubius; assay: Pre-emergence herbicidal activity against Amaranthus dubius in tomato field assessed as increase in extra-large fruit weight at 1.14 kg/ha applied through drip lines/backpack-spray on week 3 to 4 before transplanting relative to untreated control
[14] = system: Eleusine indica; assay: Pre-emergence herbicidal activity against Eleusine indica in tomato field assessed as increase in total marketable weight at 1.14 kg/ha applied through drip lines/backpack-spray on week 3 to 4 before transplanting relative to untreated control; details: pooled result: one value given for 8 cell lines, strains, targets or settings
[15] = system: Eleusine indica; assay: Pre-emergence herbicidal activity against Eleusine indica in tomato field assessed as increase in extra-large fruit weight at 1.14 kg/ha applied through drip lines/backpack-spray on week 3 to 4 before transplanting relative to untreated control
[16] = system: Digitaria; assay: Pre-emergence herbicidal activity against Digitaria spp. in tomato field assessed as increase in extra-large fruit weight at 1.14 kg/ha applied through drip lines/backpack-spray on week 3 to 4 before transplanting relative to untreated control
[17] = system: Echinochloa colona; assay: Pre-emergence herbicidal activity against Echinochloa colona in tomato field assessed as increase in extra-large fruit weight at 1.14 kg/ha applied through drip lines/backpack-spray on week 3 to 4 before transplanting relative to untreated control
[18] = system: Trianthema; assay: Pre-emergence herbicidal activity against Trianthema spp. in tomato field assessed as increase in extra-large fruit weight at 1.14 kg/ha applied through drip lines/backpack-spray on week 3 to 4 before transplanting relative to untreated control
[19] = system: Portulaca oleracea; assay: Pre-emergence herbicidal activity against Portulaca oleracea in tomato field assessed as increase in extra-large fruit weight at 1.14 kg/ha applied through drip lines/backpack-spray on week 3 to 4 before transplanting relative to untreated control
[20] = system: Corynandra viscosa; assay: Pre-emergence herbicidal activity against Cleome viscosa in tomato field assessed as number of weeds at 1.14 kg/ha applied through drip lines/backpack-spray on week 3 to 4 before transplanting measured 7 weeks after treatment (reference value: 9 plants/m2)
[21] = system: Portulaca oleracea; assay: Pre-emergence herbicidal activity against Portulaca oleracea in tomato field assessed as number of weeds at 1.14 kg/ha applied through drip lines/backpack-spray on week 3 to 4 before transplanting measured 7 weeks after treatment (reference value: 9 plants/m2)
[22] = system: Trianthema; assay: Pre-emergence herbicidal activity against Trianthema spp. in tomato field assessed as number of weeds at 1.14 kg/ha applied through drip lines/backpack-spray on week 3 to 4 before transplanting measured 7 weeks after treatment (reference value: 9 plants/m2)
[23] = system: Poaceae; assay: Pre-emergence herbicidal activity against Poaceae (grass family) in tomato field assessed as number of weeds at 1.14 kg/ha applied through drip lines/backpack-spray on week 3 to 4 before transplanting measured 7 weeks after treatment (reference value: 6 plants/m2)
[24] = system: Cyperus; assay: Pre-emergence herbicidal activity against Cyperus in tomato field assessed as number of weeds at 1.14 kg/ha applied through drip lines/backpack-spray on week 3 to 4 before transplanting measured 7 weeks after treatment (reference value: 3 plants/m2)
[25] = system: Digitaria; assay: Pre-emergence herbicidal activity against Digitaria spp. in tomato field assessed as number of weeds at 1.14 kg/ha applied through drip lines/backpack-spray on week 3 to 4 before transplanting measured 7 weeks after treatment (reference value: 9 plants/m2)
[26] = system: Echinochloa colona; assay: Pre-emergence herbicidal activity against Echinochloa colona in tomato field assessed as number of weeds at 1.14 kg/ha applied through drip lines/backpack-spray on week 3 to 4 before transplanting measured 7 weeks after treatment (reference value: 9 plants/m2)
[27] = system: Amaranthus dubius; assay: Pre-emergence herbicidal activity against Amaranthus dubius in tomato field assessed as number of weeds at 1.14 kg/ha applied through drip lines/backpack-spray on week 3 to 4 before transplanting measured 7 weeks after treatment (reference value: 9 plants/m2)
[28] = system: Boerhavia erecta; assay: Pre-emergence herbicidal activity against Boerhavia erecta in tomato field assessed as number of weeds at 1.14 kg/ha applied through drip lines/backpack-spray on week 3 to 4 before transplanting measured 7 weeks after treatment (reference value: 9 plants/m2)
[29] = system: Eleusine indica; assay: Pre-emergence herbicidal activity against Eleusine indica in tomato field assessed as total number of fruits at 1.14 kg/ha applied through drip lines/backpack-spray on week 3 to 4 before transplanting (reference value: 49.5 x 10 '3 ha); details: pooled result: one value given for 8 cell lines, strains, targets or settings
[30] = system: Corynandra viscosa; assay: Pre-emergence herbicidal activity against Cleome viscosa in tomato field assessed as increase in extra-large fruit weight at 1.14 kg/ha applied through drip lines/backpack-spray on week 3 to 4 before transplanting relative to untreated control
[31] = system: Boerhavia erecta; assay: Pre-emergence herbicidal activity against Boerhavia erecta in tomato field assessed as increase in extra-large fruit weight at 1.14 kg/ha applied through drip lines/backpack-spray on week 3 to 4 before transplanting relative to untreated control

`CCc1cccc(C)c1N(C(=O)CCl)[C@@H](C)COC` [S-METOLACHLOR] was tested, and the Activity [1] was 2 /m2, the Activity [2] was 2 /m2 and the Activity [3] was 2 /m2. The Activity [4] was 2 /m2, the Activity [5] was 2 /m2 and the Activity [6] was 2 /m2. For the same compound, the Activity [7] was 2 /m2, the Activity [8] was 2 /m2 and the Activity [9] was 9 /m2. The Activity [10] was 3 /m2, the Activity [11] was 3 /m2 and the Activity [12] was 35 10^3 fruits/ha. It also gave an Activity [13] of 75%, an Activity [14] of 57% and an Activity [15] of 75%. For the same compound, the Activity [16] was 75%, the Activity [17] was 75% and the Activity [18] was 75%. For the same compound, the Activity [19] was 75%, the Activity [20] was 3 /m2 and the Activity [21] was 3 /m2. For the same compound, the Activity [22] was 3 /m2, the Activity [23] was 0 /m2 and the Activity [24] was 2 /m2. The Activity [25] was 3 /m2, the Activity [26] was 3 /m2 and the Activity [27] was 3 /m2. For the same compound, the Activity [28] was 3 /m2, the fruit count [29] was 70.8 10^3 fruits/ha and the Activity [30] was 75%. For the same compound, the Activity [31] was 75%.
